In patent US8309552B2, “Immunomodulating heterocyclic compounds” (Medigene AG, priority 2003, dated 2012) one finds EC50 data, which are given here for 62 compounds.

The assay addresses T1, CD80-CD28 interaction (Homo sapiens, UniProt P33681).
T1 sequence (P33681 35-242 limits assumed): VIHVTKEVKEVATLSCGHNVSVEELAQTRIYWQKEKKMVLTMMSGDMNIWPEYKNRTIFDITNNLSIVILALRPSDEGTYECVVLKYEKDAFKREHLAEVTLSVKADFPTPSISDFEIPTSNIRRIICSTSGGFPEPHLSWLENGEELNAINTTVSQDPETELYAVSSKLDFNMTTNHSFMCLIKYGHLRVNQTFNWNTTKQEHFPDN
The assay is described as follows: Homogenous Time Resolved Fluorescence (HTRF) assay, cell free. Format: binding. The following applies: cell-free HTRF, compound concentration series 100 μM-1.7 nM, 4 hours at room temperature; read-out: Activity (EC50 in the HTRF assay). As to the method: Homogenous Time Resolved Fluorescence Assay
The examples described above were tested in a cell free Homogenous Time Resolved Fluorescence (HTRF) assay to determine their activity as inhibitors of the CD80-CD28 interaction.
In the assay, europium and allophycocyanin (APC) are associated with CD28 and CD80 indirectly (through antibody linkers) to form a complex, which brings the europium and APC into close proximity to generate a signal. The complex comprises the following six proteins: fluorescent label 1, linker antibody 1, CD28 fusion protein, CD80 fusion protein, linker antibody 2, and fluorescent label 2. The table below describes these reagents in greater detail.
On formation of the complex, europium and APC are brought into proximity and a signal is generated.
Non-specific interaction was measured by substituting a mouse Fab fragment (C215) for the CD80 mouse Fab fragment fusion protein (1.9 μg/ml). The assay was carried out in black 384 well plates in a final volume of 30 μl. Assay buffer: 50 mM Tris-HCl, 150 mM NaCl pH7.8, containing 0.1% BSA (w/v) added just prior to use.
Compounds were added to the above reagents in a concentration series ranging between 100 μM-1.7 nM. The reaction was incubated for 4 hours at room temperature. Dual measurements were made using a Wallac Victor 1420 Multilabel Counter. First measurement: excitation 340 nm, emission 665 nm, delay 50 μs, window time 200 μs. second measurement: excitation 340 nm, emission 615 nm, delay 50 μs, window time 200 μs. Counts were automatically corrected for fluorescence crossover, quenching and background. The EC50 activities of compounds tested are recorded as: EC50:*=>10 μM,**=1-10 μM,***=<1 μM.
(Time-resolved FRET reads energy transfer from a long-lived donor to a nearby acceptor.)
Take `CCCCOCCCNC(=O)c1ccc(-n2[nH]c3c(nnc4ccccc43)c2=O)cc1` [Example 67]: the EC50 (in general, the midpoint of the concentration-response curve) was < 1000 nM. Consider `CCN1CCCC1CNC(=O)c1ccc(-n2[nH]c3c(nnc4ccccc43)c2=O)cc1` (centres unmarked) [Example 69], for which the concentration for a half-maximal effect (EC50) is < 1000 nM. In the case of `CC[C@@H](C)NC(=O)c1ccc(-n2[nH]c3c(nnc4ccccc43)c2=O)cc1` [Example 70], the concentration for a half-maximal effect (EC50) was < 1000 nM.

On to `CC[C@H](C)NC(=O)c1ccc(-n2[nH]c3c(nnc4ccccc43)c2=O)cc1` [Example 71], for which the EC50 was < 1000 nM.

Take `CCC(CC)NC(=O)c1ccc(-n2[nH]c3c(nnc4ccccc43)c2=O)cc1` [Example 72]: the 50% effective concentration (EC50) was in the range of 1000 to 10000 nM. For the compound `O=C(NCCCCc1ccccc1)c1ccc(-n2[nH]c3c(nnc4ccccc43)c2=O)cc1` [Example 73], the EC50 fell in the range of 1000 to 10000 nM. Consider `CCOC(=O)CCC(NC(=O)c1ccc(-n2[nH]c3c(nnc4ccccc43)c2=O)cc1)C(=O)OCC` (centres unmarked) [Example 74], for which the EC50 was in the range of 1000 to 10000 nM. As to `CC(NC(=O)c1ccc(-n2[nH]c3c(nnc4ccccc43)c2=O)cc1)C1CCCCC1` (centres unmarked) [Example 75], the EC50 was 1000 to 10000 nM.

Turning to `O=C(NCCc1ccccn1)c1ccc(-n2[nH]c3c(nnc4ccccc43)c2=O)cc1` [Example 76], the EC50 lay in the range of 1000 to 10000 nM. `CCSCCNC(=O)c1ccc(-n2[nH]c3c(nnc4ccccc43)c2=O)cc1` [Example 77]: the concentration giving a half-maximal response (EC50) is < 1000 nM.

Consider `O=C(NC1CC1)c1ccc(-n2[nH]c3c(nnc4ccccc43)c2=O)cc1` [Example 78], for which the EC50 lay in the range of 1000 to 10000 nM. As to `O=C(NCCCN1CCCC1)c1ccc(-n2[nH]c3c(nnc4ccccc43)c2=O)cc1` [Example 79], the EC50 was < 1000 nM. In the case of `O=C(NC1CCCN(Cc2ccccc2)C1)c1ccc(-n2[nH]c3c(nnc4ccccc43)c2=O)cc1` (centres unmarked) [Example 80], the EC50 is < 1000 nM. Take `CCN(CC)CCCC(C)NC(=O)c1ccc(-n2[nH]c3c(nnc4ccccc43)c2=O)cc1` (centres unmarked) [Example 81]: the EC50 is < 1000 nM. With `CC(C)CCNC(=O)c1ccc(-n2[nH]c3c(nnc4ccccc43)c2=O)cc1` [Example 82], the EC50 fell in the range of 1000 to 10000 nM. With `O=C(NC1CCCC1)c1ccc(-n2[nH]c3c(nnc4ccccc43)c2=O)cc1` [Example 83], the EC50 fell in the range of 1000 to 10000 nM. Regarding `CCCNC(=O)c1ccc(-n2[nH]c3c(nnc4ccccc43)c2=O)cc1` [Example 84], the EC50 fell in the range of 1000 to 10000 nM. On to `CC(C)(C)CCNC(=O)c1ccc(-n2[nH]c3c(nnc4ccccc43)c2=O)cc1` [Example 85], for which the EC50 is 1000 to 10000 nM. The value for `O=C(NC1CCN(Cc2ccccc2)CC1)c1ccc(-n2[nH]c3c(nnc4ccccc43)c2=O)cc1` [Example 86] was < 1000 nM; that for `O=C(NCC1CCCCCC1)c1ccc(-n2[nH]c3c(nnc4ccccc43)c2=O)cc1` [Example 87] was > 10000 nM. On to `CC(NC(=O)c1ccc(-n2[nH]c3c(nnc4ccccc43)c2=O)cc1)C(C)(C)C` (centres unmarked) [Example 88], for which the EC50 is 1000 to 10000 nM. For the compound `CC(C)C(C)NC(=O)c1ccc(-n2[nH]c3c(nnc4ccccc43)c2=O)cc1` (centres unmarked) [Example 89], the EC50 was < 1000 nM.

`O=C(NC1CCCC1OCc1ccccc1)c1ccc(-n2[nH]c3c(nnc4ccccc43)c2=O)cc1` (centres unmarked) [Example 90]: the EC50 lay in the range of 1000 to 10000 nM. With `CC(C)(C)OC(=O)NCCCCNC(=O)c1ccc(-n2[nH]c3c(nnc4ccccc43)c2=O)cc1` [Example 91], the concentration giving a half-maximal response (EC50) was < 1000 nM.

Turning to `CCCCCCCC(C)NC(=O)c1ccc(-n2[nH]c3c(nnc4ccccc43)c2=O)cc1` (centres unmarked) [Example 92], the EC50 was > 10000 nM.

`COC(=O)C(NC(=O)c1ccc(-n2[nH]c3c(nnc4ccccc43)c2=O)cc1)C(C)C` (centres unmarked) [Example 93]: the 50% effective concentration (EC50) lay within 1000 to 10000 nM. Turning to `O=C(NC1CCN(Cc2ccccc2)C1)c1ccc(-n2[nH]c3c(nnc4ccccc43)c2=O)cc1` (centres unmarked) [Example 94], the half-maximal effective concentration (EC50) is < 1000 nM. The value for `O=C(NCCc1cccnc1)c1ccc(-n2[nH]c3c(nnc4ccccc43)c2=O)cc1` [Example 95] was < 1000 nM; that for `CC(C)CCC(C)NC(=O)c1ccc(-n2[nH]c3c(nnc4ccccc43)c2=O)cc1` (centres unmarked) [Example 96] was 1000 to 10000 nM; that for `CN(CCNC(=O)c1ccc(-n2[nH]c3c(nnc4ccccc43)c2=O)cc1)C(=O)OC(C)(C)C` [Example 97] was 1000 to 10000 nM. Consider `O=C(Nc1ccc(N2CCCCC2)cc1)c1ccc(-n2[nH]c3c(nnc4ccccc43)c2=O)cc1` [Example 98], for which the 50% effective concentration (EC50) was 1000 to 10000 nM. As to `CC(CCCC(C)(C)O)NC(=O)c1ccc(-n2[nH]c3c(nnc4ccccc43)c2=O)cc1` (centres unmarked) [Example 99], the 50% effective concentration (EC50) lay within 1000 to 10000 nM. The value for `CC(C)(C)OC(=O)N1CCN(CCNC(=O)c2ccc(-n3[nH]c4c(nnc5ccccc54)c3=O)cc2)CC1` [Example 101] was < 1000 nM.

For the compound `O=C(NCCN1CCNCC1)c1ccc(-n2[nH]c3c(nnc4ccccc43)c2=O)cc1` [Example 102], the concentration giving a half-maximal response (EC50) lay in the range of 1000 to 10000 nM.

Consider `CC1(C)CC(NC(=O)c2ccc(-n3[nH]c4c(nnc5ccccc54)c3=O)cc2)CC(C)(C)N1` [Example 103], for which the EC50 is < 1000 nM. As to `CCOC(=O)N1CCC(NC(=O)c2ccc(-n3[nH]c4c(nnc5ccccc54)c3=O)cc2)CC1` [Example 104], the EC50 was 1000 to 10000 nM. With `CC(CCc1ccccc1)NC(=O)c1ccc(-n2[nH]c3c(nnc4ccccc43)c2=O)cc1` (centres unmarked) [Example 105], the EC50 is > 10000 nM. On to `COC(CNC(=O)c1ccc(-n2[nH]c3c(nnc4ccccc43)c2=O)cc1)OC` [Example 106], for which the half-maximal effective concentration (EC50) was 1000 to 10000 nM. Consider `CCC(C)CNC(=O)c1ccc(-n2[nH]c3c(nnc4ccccc43)c2=O)cc1` (centres unmarked) [Example 107], for which the EC50 fell in the range of 1000 to 10000 nM. As for `CC(C)NCCNC(=O)c1ccc(-n2[nH]c3c(nnc4ccccc43)c2=O)cc1` [Example 108], the half-maximal effective concentration (EC50) is < 1000 nM. Consider `O=C(NCCNCCO)c1ccc(-n2[nH]c3c(nnc4ccccc43)c2=O)cc1` [Example 109], for which the EC50 is < 1000 nM. As for `CC(C)NCCCNC(=O)c1ccc(-n2[nH]c3c(nnc4ccccc43)c2=O)cc1` [Example 110], the 50% effective concentration (EC50) was < 1000 nM. For the compound `O=C(NCCCO)c1ccc(-n2[nH]c3c(nnc4ccccc43)c2=O)cc1` [Example 111], the half-maximal effective concentration (EC50) fell in the range of 1000 to 10000 nM.

Take `O=C(NCCCCCO)c1ccc(-n2[nH]c3c(nnc4ccccc43)c2=O)cc1` [Example 112]: the 50% effective concentration (EC50) is < 1000 nM.

As for `CCCCCCNC(=O)c1ccc(-n2[nH]c3c(nnc4ccccc43)c2=O)cc1` [Example 113], the EC50 lay in the range of 1000 to 10000 nM.

For the compound `NS(=O)(=O)c1ccc(CCNC(=O)c2ccc(-n3[nH]c4c(nnc5ccccc54)c3=O)cc2)cc1` [Example 114], the concentration giving a half-maximal response (EC50) fell in the range of 1000 to 10000 nM. As to `COC(=O)CNC(=O)c1ccc(-n2[nH]c3c(nnc4ccccc43)c2=O)cc1` [Example 115], the EC50 was 1000 to 10000 nM. Take `CCOC(=O)CCNC(=O)c1ccc(-n2[nH]c3c(nnc4ccccc43)c2=O)cc1` [Example 116]: the half-maximal effective concentration (EC50) is > 10000 nM. In the case of `CC(C)(C)OC(=O)NCCCCCCNC(=O)c1ccc(-n2[nH]c3c(nnc4ccccc43)c2=O)cc1` [Example 117], the EC50 lay within 1000 to 10000 nM. As for `CCOC(=O)C(C)NC(=O)c1ccc(-n2[nH]c3c(nnc4ccccc43)c2=O)cc1` (centres unmarked) [Example 118], the 50% effective concentration (EC50) lay in the range of 1000 to 10000 nM.

Take `COCC(C)NC(=O)c1ccc(-n2[nH]c3c(nnc4ccccc43)c2=O)cc1` (centres unmarked) [Example 119]: the concentration for a half-maximal effect (EC50) was in the range of 1000 to 10000 nM.

As for `CC(NC(=O)c1ccc(-n2[nH]c3c(nnc4ccccc43)c2=O)cc1)C1CCCCC1` (centres unmarked) [Example 120], the EC50 is 1000 to 10000 nM. On to `CC1C(NC(=O)c2ccc(-n3[nH]c4c(nnc5ccccc54)c3=O)cc2)CC2CC1C2(C)C` (centres unmarked) [Example 121], for which the EC50 lay within 1000 to 10000 nM. `CC1C(NC(=O)c2ccc(-n3[nH]c4c(nnc5ccccc54)c3=O)cc2)CC2CC1C2(C)C` (centres unmarked) [Example 122]: the EC50 is > 10000 nM. Regarding `O=C(Nc1ccc(-n2[nH]c3c(nnc4ccccc43)c2=O)cc1)NC1CCN(Cc2ccccc2)CC1` [Example 123], the EC50 lay within 1000 to 10000 nM. As to `CC(C)CC(C)NC(=O)Nc1ccc(-n2[nH]c3c(nnc4ccccc43)c2=O)cc1` (centres unmarked) [Example 124], the EC50 was > 10000 nM. In the case of `O=C(NCCN1CCCCC1)Nc1ccc(-n2[nH]c3c(nnc4ccccc43)c2=O)cc1` [Example 125], the half-maximal effective concentration (EC50) was in the range of 1000 to 10000 nM.

For `O=C(NCc1ccc(F)cc1)Nc1ccc(-n2[nH]c3c(nnc4ccccc43)c2=O)cc1` [Example 126], the concentration for a half-maximal effect (EC50) is > 10000 nM.

As for `O=C(Nc1ccc(-n2[nH]c3c(nnc4ccccc43)c2=O)cc1)NC1CCCCC1` [Example 127], the EC50 was > 10000 nM.

Consider `CCOCCCNC(=O)Nc1ccc(-n2[nH]c3c(nnc4ccccc43)c2=O)cc1` [Example 128], for which the concentration giving a half-maximal response (EC50) is 1000 to 10000 nM. As to `CN1CCN(CCCNC(=O)Nc2ccc(-n3[nH]c4c(nnc5ccccc54)c3=O)cc2)CC1` [Example 129], the concentration for a half-maximal effect (EC50) was < 1000 nM.

For `CN(C)CCNC(=O)Nc1ccc(-n2[nH]c3c(nnc4ccccc43)c2=O)cc1` [Example 130], the EC50 was < 1000 nM.
